Data as given in DBAASP.
≈ marks a conversion by molar mass, not a printed value.

Tests used:
Assay in all cases: ≥ marks a high value that may be exact or a test limit, other limits are often not marked, values filed in µg/mL are converted to µM
[1] = tested on: Pseudomonas aeruginosa ATCC 27853
[2] = tested on: Escherichia coli NCTC 10418
[3] = tested on: Candida albicans NCTC 1467
[4] = tested on: Enterococcus faecalis NCTC 12697
[5] = tested on: Staphylococcus aureus ATCC 12493
[6] = tested on: Staphylococcus aureus NCTC 10788
[7] = tested on: Escherichia coli
[8] = tested on: Escherichia coli DH5alpha
[9] = tested on: Pseudomonas aeruginosa H188
[10] = tested on: Escherichia coli ATCC 25922
[11] = tested on: Enterococcus faecium
[12] = tested on: Staphylococcus aureus MR
[13] = tested on: Serratia marcescens
[14] = tested on: Staphylococcus aureus
[15] = tested on: Acinetobacter baumannii
[16] = tested on: Stenotrophomonas maltophilia
[17] = tested on: Klebsiella pneumoniae
[18] = tested on: Pseudomonas aeruginosa
[19] = tested on: Streptococcus pneumoniae
[20] = tested on: Enterococcus faecalis

MIC [1] | MIC [7] | MIC [8] | MIC [9] | MIC [10] | MIC [11] | MIC [12] | MIC [13] | MIC [14] | MIC [15] | MIC [16] | MIC [17] | MIC [18] | MIC [19] | MIC [20] | Structure (SMILES) | MIC [2] | MIC [3] | MIC [4] | MIC [5] | MIC [6]
> 512 µM |  |  |  |  |  |  |  |  |  |  |  |  |  |  | CC[C@H](C)[C@H](NC(=O)CN)C(=O)N[C@@H](CCSC)C(=O)N[C@@H](CC(=O)O)C(=O)N[C@H](C(=O)N[C@H](C(=O)N[C@@H](CCCCN)C(=O)N[C@@H](CC(N)=O)C(=O)N[C@@H](C)C(=O)N[C@@H](C)C(=O)N[C@@H](CCCCN)C(=O)N[C@@H](CC(N)=O)C(=O)N[C@@H](CC(C)C)C(=O)N[C@@H](C)C(=O)NCC(=O)N[C@@H](CCC(N)=O)C(=O)N[C@@H](CC(C)C)C(=O)N[C@@H](CC(C)C)C(=O)N[C@@H](CC(=O)O)C(=O)N[C@@H](CCCCN)C(=O)N[C@@H](CC(C)C)C(=O)N[C@@H](CCCCN)C(=O)O)C(C)C)[C@@H](C)O [GIMDTVKNAAKNLAGQLLDKLK] | ≥ 128 µM | ≥ 512 µM | ≥ 512 µM | ≥ 512 µM | ≥ 256 µM
10.9 µM (≈ 32.4 µg/mL) | 5.45 µM (≈ 16.2 µg/mL) | 2.72 µM (≈ 8.11 µg/mL) | 1.36 µM (≈ 4.06 µg/mL) | 2.72 µM (≈ 8.11 µg/mL) |  |  |  |  |  |  |  |  |  |  | CC[C@H](C)[C@H](NC(=O)[C@H](C)NC(=O)[C@H](CCCCN)NC(=O)[C@H](CC(C)C)NC(=O)[C@H](C)NC(=O)[C@@H](NC(=O)[C@H](Cc1cnc[nH]1)NC(=O)[C@H](CC(C)C)NC(=O)[C@H](CO)NC(=O)[C@@H](NC(=O)[C@H](CCCCN)NC(=O)[C@H](CCCCN)NC(=O)[C@H](C)NC(=O)[C@H](CO)NC(=O)[C@H](CCCCN)NC(=O)[C@H](Cc1ccccc1)NC(=O)[C@@H](NC(=O)[C@H](CCCCN)NC(=O)[C@H](CC(C)C)NC(=O)[C@H](Cc1ccccc1)NC(=O)[C@H](CO)NC(=O)[C@H](CCCCN)NC(=O)[C@H](Cc1c[nH]c2ccccc12)NC(=O)[C@H](CCCCN)NC(C)=O)[C@@H](C)O)[C@@H](C)O)[C@@H](C)O)C(=O)N[C@@H](CO)C(=O)N[C@@H](CO)C(N)=O [KWKSFLKTFKSAKKTSLHTALKAISS] |  |  |  |  | 
 | 2.71 µM (≈ 8.02 µg/mL) |  |  |  | 10.8 µM (≈ 32 µg/mL) | 3.84 µM (≈ 11.3 µg/mL) | 7.65 µM (≈ 22.6 µg/mL) | 3.84 µM (≈ 11.3 µg/mL) | 15.3 µM (≈ 45.3 µg/mL) | 10.8 µM (≈ 32 µg/mL) | 3.84 µM (≈ 11.3 µg/mL) | 15.3 µM (≈ 45.3 µg/mL) | 3.84 µM (≈ 11.3 µg/mL) | 3.84 µM (≈ 11.3 µg/mL) | CC[C@H](C)[C@H](NC(=O)[C@H](CC(C)C)NC(=O)CNC(=O)[C@H](CO)NC(=O)[C@@H](NC(=O)[C@H](CC(C)C)NC(=O)[C@@H](N)CC(N)=O)C(C)C)C(=O)N[C@@H](CCC(=O)O)C(=O)N[C@@H](C)C(=O)N[C@@H](CCCN=C(N)N)C(=O)N[C@@H](CCCCN)C(=O)N[C@@H](Cc1ccc(O)cc1)C(=O)N[C@@H](CC(C)C)C(=O)N[C@@H](CCC(=O)O)C(=O)N[C@@H](CCC(N)=O)C(=O)N[C@@H](CC(C)C)C(=O)N[C@@H](Cc1cnc[nH]1)C(=O)N[C@@H](CCCN=C(N)N)C(=O)N[C@@H](CCCCN)C(=O)N[C@@H](CC(C)C)C(=O)N[C@@H](CCCCN)C(=O)N[C@@H](CC(N)=O)C(=O)N[C@@H](CS)C(=O)N[C@@H](CCCCN)C(=O)N[C@H](C(=O)O)C(C)C [NLVSGLIEARKYLEQLHRKLKNCKV] |  |  |  |  | 

Structure (SMILES) | MIC [1] | MIC [7] | MIC [8] | MIC [9] | MIC [10] | MIC [11] | MIC [12] | MIC [13] | MIC [14] | MIC [15] | MIC [16] | MIC [17] | MIC [18] | MIC [19] | MIC [20] | MIC [2] | MIC [3] | MIC [4] | MIC [5] | MIC [6]
CC[C@H](C)[C@H](NC(=O)[C@H](CCCCN)NC(=O)[C@H](CCCCN)NC(=O)[C@H](C)NC(=O)[C@@H](NC(=O)[C@H](C)NC(=O)[C@H](CC(C)C)NC(=O)[C@H](CC(C)C)NC(=O)[C@H](C)NC(=O)[C@H](CCCCN)NC(=O)[C@H](CC(C)C)NC(=O)[C@H](CC(N)=O)NC(=O)[C@H](CC(C)C)NC(=O)[C@H](CCCN=C(N)N)NC(=O)[C@H](CCCN=C(N)N)NC(=O)[C@H](CCCN=C(N)N)NC(=O)[C@H](CCC(N)=O)NC(=O)[C@H](CCCN=C(N)N)NC(=O)[C@H](CCCN=C(N)N)NC(=O)[C@H](CCCCN)NC(=O)[C@H](CCCCN)NC(=O)[C@@H](N)CCCN=C(N)N)C(C)C)C(=O)N[C@@H](CC(C)C)C(N)=O [RKKRRQRRRLNLKALLAVAKKIL] | 4 µM (≈ 11.3 µg/mL) |  |  |  |  |  |  |  |  |  |  |  |  |  |  | 2 µM (≈ 5.66 µg/mL) | 2 µM (≈ 5.66 µg/mL) | 8 µM (≈ 22.6 µg/mL) | 4 µM (≈ 11.3 µg/mL) | 4 µM (≈ 11.3 µg/mL)
